From PubChem BioAssay (NCI)
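Briefly, cells in 96-well plates were exposed to five compound concentrations for 48 h, and endpoints were estimated by linear interpolation. The concentration for 50% growth inhibition is given as GI50. TGI marks complete inhibition of growth.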

Columns and labels:
Test in all cases: growth of human tumour cells (NCI), 48 h
HOP-92 NSCLC = test system: HOP-92 NSCLC
NCI-H226 lung = test system: NCI-H226 lung
MOLT-4 leukemia = test system: MOLT-4 leukemia
MDA-MB-468 breast = test system: MDA-MB-468 breast
NCI/ADR-RES ovarian = test system: NCI/ADR-RES ovarian
HCT-15 colon = test system: HCT-15 colon
SN12C renal = test system: SN12C renal
COLO 205 colon = test system: COLO 205 colon
OVCAR-4 ovarian = test system: OVCAR-4 ovarian
LOX IMVI melanoma = test system: LOX IMVI melanoma
MCF7 breast = test system: MCF7 breast
HS 578T breast = test system: HS 578T breast
SK-MEL-2 melanoma = test system: SK-MEL-2 melanoma
BT-549 breast = test system: BT-549 breast
HCC-2998 colon = test system: HCC-2998 colon
OVCAR-5 ovarian = test system: OVCAR-5 ovarian
UACC-257 melanoma = test system: UACC-257 melanoma
NCI-H522 lung = test system: NCI-H522 lung
HCT-116 colon = test system: HCT-116 colon
RPMI-8226 leukemia = test system: RPMI-8226 leukemia
SF-268 CNS = test system: SF-268 CNS
RXF 393 renal = test system: RXF 393 renal
OVCAR-8 ovarian = test system: OVCAR-8 ovarian
U251 CNS = test system: U251 CNS
PC-3 prostate = test system: PC-3 prostate
SNB-19 CNS = test system: SNB-19 CNS
HL-60(TB) leukemia = test system: HL-60(TB) leukemia
UACC-62 melanoma = test system: UACC-62 melanoma
CAKI-1 renal = test system: CAKI-1 renal
A498 renal = test system: A498 renal
EKVX NSCLC = test system: EKVX NSCLC
SNB-75 CNS = test system: SNB-75 CNS
SF-295 CNS = test system: SF-295 CNS
SK-OV-3 ovarian = test system: SK-OV-3 ovarian
MALME-3M melanoma = test system: MALME-3M melanoma
M14 melanoma = test system: M14 melanoma
TK-10 renal = test system: TK-10 renal
IGROV1 ovarian = test system: IGROV1 ovarian
T-47D breast = test system: T-47D breast
SK-MEL-5 melanoma = test system: SK-MEL-5 melanoma
SF-539 CNS = test system: SF-539 CNS
A549 NSCLC = test system: A549 NSCLC
NCI-H23 lung = test system: NCI-H23 lung
OVCAR-3 ovarian = test system: OVCAR-3 ovarian
ACHN renal = test system: ACHN renal
HOP-62 NSCLC = test system: HOP-62 NSCLC
SK-MEL-28 melanoma = test system: SK-MEL-28 melanoma
KM12 colon = test system: KM12 colon
MDA-MB-231 breast = test system: MDA-MB-231 breast
786-0 renal = test system: 786-0 renal
DU-145 prostate = test system: DU-145 prostate
MDA-MB-435 = test system: MDA-MB-435
UO-31 renal = test system: UO-31 renal
SW-620 colon = test system: SW-620 colon
CCRF-CEM leukemia = test system: CCRF-CEM leukemia

Compound: COc1ccc(-c2nc3cc(C)ccc3n2CC(=O)N=Nc2c(O)[nH]c3ccc(OC)cc23)cc1
- GI50 (HOP-92 NSCLC): 1.83 µM
- TGI (HOP-92 NSCLC): 4.07 µM
- GI50 (NCI-H226 lung): 2 µM
- TGI (NCI-H226 lung): 4.31 µM
- GI50 (MOLT-4 leukemia): 2.65 µM
- TGI (MOLT-4 leukemia): 8.57 µM
- GI50 (MDA-MB-468 breast): 2.05 µM
- TGI (MDA-MB-468 breast): 4.41 µM
- GI50 (NCI/ADR-RES ovarian): 2.34 µM
- TGI (NCI/ADR-RES ovarian): 5.52 µM
- GI50 (HCT-15 colon): 2.56 µM
- TGI (HCT-15 colon): 7.51 µM
- GI50 (SN12C renal): 1.8 µM
- TGI (SN12C renal): 4.08 µM
- GI50 (COLO 205 colon): 2.62 µM
- TGI (COLO 205 colon): 7.93 µM
- GI50 (OVCAR-4 ovarian): 1.84 µM
- TGI (OVCAR-4 ovarian): 3.79 µM
- GI50 (LOX IMVI melanoma): 2.27 µM
- TGI (LOX IMVI melanoma): 5.81 µM
- GI50 (MCF7 breast): 2.01 µM
- TGI (MCF7 breast): 4.96 µM
- GI50 (HS 578T breast): 2.02 µM
- TGI (HS 578T breast): 5.15 µM
- GI50 (SK-MEL-2 melanoma): 5.39 µM
- TGI (SK-MEL-2 melanoma): 19.7 µM
- GI50 (BT-549 breast): 1.88 µM
- TGI (BT-549 breast): 4.01 µM
- GI50 (HCC-2998 colon): 3.66 µM
- TGI (HCC-2998 colon): 13.2 µM
- GI50 (OVCAR-5 ovarian): 2.43 µM
- TGI (OVCAR-5 ovarian): 8.93 µM
- GI50 (UACC-257 melanoma): 2.38 µM
- TGI (UACC-257 melanoma): 6.02 µM
- GI50 (NCI-H522 lung): 3.71 µM
- TGI (NCI-H522 lung): 15.3 µM
- GI50 (HCT-116 colon): 1.74 µM
- TGI (HCT-116 colon): 3.27 µM
- GI50 (RPMI-8226 leukemia): 3.22 µM
- TGI (RPMI-8226 leukemia): 14.9 µM
- GI50 (SF-268 CNS): 2.43 µM
- TGI (SF-268 CNS): 8.3 µM
- GI50 (RXF 393 renal): 1.48 µM
- TGI (RXF 393 renal): 3.27 µM
- GI50 (OVCAR-8 ovarian): 2.3 µM
- TGI (OVCAR-8 ovarian): 5.89 µM
- GI50 (U251 CNS): 2.09 µM
- TGI (U251 CNS): 4.24 µM
- GI50 (PC-3 prostate): 2.3 µM
- TGI (PC-3 prostate): 6.65 µM
- GI50 (SNB-19 CNS): 4.3 µM
- TGI (SNB-19 CNS): 16.1 µM
- GI50 (HL-60(TB) leukemia): 1.72 µM
- TGI (HL-60(TB) leukemia): 5.22 µM
- GI50 (UACC-62 melanoma): 1.84 µM
- TGI (UACC-62 melanoma): 5.05 µM
- GI50 (CAKI-1 renal): 1.93 µM
- TGI (CAKI-1 renal): 5.45 µM
- GI50 (A498 renal): 11.2 µM
- TGI (A498 renal): 24.6 µM
- GI50 (EKVX NSCLC): 3.28 µM
- TGI (EKVX NSCLC): 12.5 µM
- GI50 (SNB-75 CNS): 1.49 µM
- TGI (SNB-75 CNS): 3.35 µM
- GI50 (SF-295 CNS): 3.59 µM
- TGI (SF-295 CNS): 13.7 µM
- GI50 (SK-OV-3 ovarian): 4.32 µM
- TGI (SK-OV-3 ovarian): 15.6 µM
- GI50 (MALME-3M melanoma): 1.94 µM
- TGI (MALME-3M melanoma): 3.52 µM
- GI50 (M14 melanoma): 1.8 µM
- TGI (M14 melanoma): 3.38 µM
- GI50 (TK-10 renal): 3.13 µM
- TGI (TK-10 renal): 11.9 µM
- GI50 (IGROV1 ovarian): 6.83 µM
- TGI (IGROV1 ovarian): 19.8 µM
- GI50 (T-47D breast): 2.43 µM
- TGI (T-47D breast): 6.5 µM
- GI50 (SK-MEL-5 melanoma): 1.64 µM
- TGI (SK-MEL-5 melanoma): 3.16 µM
- GI50 (SF-539 CNS): 1.62 µM
- TGI (SF-539 CNS): 3 µM
- GI50 (A549 NSCLC): 1.99 µM
- TGI (A549 NSCLC): 4.43 µM
- GI50 (NCI-H23 lung): 2.48 µM
- TGI (NCI-H23 lung): 6.88 µM
- GI50 (OVCAR-3 ovarian): 1.87 µM
- TGI (OVCAR-3 ovarian): 4.39 µM
- GI50 (ACHN renal): 2.35 µM
- TGI (ACHN renal): 6.23 µM
- GI50 (HOP-62 NSCLC): 2.52 µM
- TGI (HOP-62 NSCLC): 6.96 µM
- GI50 (SK-MEL-28 melanoma): 1.73 µM
- TGI (SK-MEL-28 melanoma): 3.19 µM
- GI50 (KM12 colon): 1.85 µM
- TGI (KM12 colon): 3.72 µM
- GI50 (MDA-MB-231 breast): 2.04 µM
- TGI (MDA-MB-231 breast): 4.68 µM
- GI50 (786-0 renal): 3.37 µM
- TGI (786-0 renal): 11.7 µM
- GI50 (DU-145 prostate): 3.54 µM
- TGI (DU-145 prostate): 14.7 µM
- GI50 (MDA-MB-435): 1.88 µM
- TGI (MDA-MB-435): 3.76 µM
- GI50 (UO-31 renal): 11.2 µM
- TGI (UO-31 renal): 23.6 µM
- GI50 (SW-620 colon): 2.11 µM
- TGI (SW-620 colon): 5.1 µM
- GI50 (CCRF-CEM leukemia): 3.6 µM
- TGI (CCRF-CEM leukemia): 13.3 µM
